Columns and labels:
[1] = MTT cell viability assay on macrophages; type: cell-based, murine; details: mouse, J774.A1 macrophage cells; Table 1; macrophages
Protocol: (§1) The J774.A1 murine macrophage cells were grown in Roswell Park Memorial Institute (RPMI) 1640 medium in the presence of 10% (v/v) FBS and 100 U/ml penicillin−100 µg/ml streptomycin (Gibco, Invitrogen, Thermo Fisher Scientific, NY, USA) at 37°C (humidified) and 5% CO2. […] Madin–Darby canine kidney (MDCK) cells were obtained from the National Centre for Cell Science, Pune, India. MDCK cells were derived from the kidney tissue of an adult female Cocker Spaniel. These were grown in Dulbecco’s modified Eagle’s minimal essential medium (DMEM) in the presence of 10% (v/v) FBS and 100 U/ml penicillin−100 µg/ml streptomycin (Gibco, Invitrogen, Thermo Fisher Scientific, NY, USA) at 37°C (humidified) and 5% CO2 ([Ayana et al., 2018]; [Shivappagowdar et al., 2021]).
(§2) All the compounds were dissolved in dimethyl sulfoxide (DMSO) (Sigma-Aldrich) for 1 mM stock solution and were screened against promastigotes at a concentration of 5 µM. For Glycosides (Gly) 2, 6, and 8, a range of concentrations starting from 100 nM to 100 µM were screened against promastigote forms of parasite and mammalian cells. Parasites (AG83 and PKDL strain) treated with amphotericin B (3 µg/ml) (Sigma-Aldrich) were maintained as the positive control.
(§3) To evaluate the cytotoxic effects of 12 compounds on L. donovani promastigotes, LDH assay was performed. This assay involves the reduction of tetrazolium salts to formazan during LDH-mediated catalysis of lactate to pyruvate, which can be detected at […]. Rate of formazan formation is proportional to the release of LDH through damaged cell membranes. For the preliminary screening, the promastigotes were incubated with 12 compounds at a single concentration of 5 µM for a period of 72 h, and the released LDH was estimated ( Supplementary Figure S1A ). Amphotericin B-treated promastigotes were taken as the positive control. […] Having observed the antileishmanial effect of Gly2 on growth and proliferation of promastigotes, we next investigated the cytotoxicity of Gly2 on mammalian cells (MDCK, J774.1A) through MTT (3-(4, 5-dimethylthiazolyl-2)-2, 5-diphenyltetrazolium bromide) cell viability assay ( Supplementary Figures S1B, C ). […] The CC50 values of Gly2 analog was in the micromolar range. The selectivity index (SI) for the compound was calculated as the ratio between cytotoxicity (CC50) and activity (IC50) against promastigotes ( Table 1 ).

[2] = tested on: J774.A1 murine macrophage cells; test: MTT cell viability assay on macrophages; type: cell-based; details: MTT assay
Protocol: as §1, §2, §3

[3] = tested on: L. donovani promastigotes; test: DCFDA estimation of reactive oxygen species in promastigotes; type: cell-based, Leishmania donovani; details: Gly2-treated promastigotes, 72 h
Protocol: The redox homeostasis of promastigotes was monitored both qualitatively and quantitively by 2',7'-dichlorodihydrofluorescein diacetate (DCFDA) (Life Technologies, USA) staining. The untreated and […]-treated promastigotes (1 × 10^6 cells/ml) were cultured for 72 h. Following incubation, the parasites were harvested, washed with PBS, and stained with H2DCFDA (20 μM) for 20 min at 37°C. Excess stain was removed by washing with PBS, and samples were resuspended in PBS (50 μl) followed by imaging. Fluorescence intensity was determined using an excitation filter at 485 nm and an emission filter at 535 nm using confocal microscope (Nikon Ti eclipse, USA). The samples were also analyzed through BD FACS diva ([Shivappagowdar et al., 2019]).

[4] = tested on: L. donovani promastigotes; test: JC-1 mitochondrial membrane potential in promastigotes; type: cell-based, Leishmania donovani; details: treated promastigotes vs control, 24 h
Protocol: Mitochondrial membrane (Δψm) potential was examined using 5,6-dichloro-2-[3-(5,6-dichloro-1,3-diethyl-1,3-dihydro-2H-benzimidazol-2-ylidene)-1propenyl]-1,3-diethyl-,iodide (JC-1 dye) (Life Technologies, USA) as a probe. Treated and untreated groups were incubated for 24 h. Cells were washed with PBS and JC-1 labeled, and samples were analyzed through FACS diva (Beckton-Dickinson, Pharmingen). The approximate fluorescence excitation/emission maxima of 514/529 nm for monomeric form and 585/590 nm for J-aggregate form were used. The labeled cells were also allowed to adhere to glass slides for visualization under fluorescence microscope (Nikon Ti eclipse, USA) ([Shivappagowdar et al., 2019]).

[5] = tested on: L. donovani intracellular amastigotes in J774.A1 macrophages; test: Intramacrophage amastigote assay (Giemsa staining, J774.A1); type: cell-based, Leishmania donovani; details: treated at IC50 concentration, 24 h; untreated control ~5
Protocol: For evaluating the efficacy of compounds against intramacrophage amastigotes, Giemsa staining (Sigma-Aldrich) was performed. J774.A1 murine macrophage cells were plated at a cell density of 5 × 10^5 cell/well in a 6-well flat bottom plate. The cells were infected with late-stage L. donovani, rich in promastigotes at a ratio of 10:1. After 6 h, uninfected promastigotes were washed off with PBS.

[6] = tested on: L. donovani promastigotes; test: Complement-mediated cytolysis of promastigotes by PI uptake (10% NHS); type: cell-based, Leishmania donovani
Protocol: Parasites with an optimum 10% non-heat-inactivated normal human serum (NHS) were incubated with Gly2 at 5-µM concentration for 15 min. Promastigote lysis was detected by uptake of PI, by use of a FACS Diva flow cytometer (Beckton-Dickinson, Pharmingen), in accordance with the manufacturer’s protocol. Promastigotes were washed for excessive stain removal and filter block for PI red fluorescence, 510–560 nm was used ([Moreno et al., 2010]).

LdGp63 = target: T1, LdGp63 (Leishmania donovani, UniProt P23223); test: Cellular thermal shift assay (CETSA) in promastigotes; type: binding; details: 5 µM, 24 h, heated to 80°C; Gp63 destabilized in untreated lysate
T1 construct: endogenous in cells; host or cells: Leishmania donovani promastigotes (AG83 lab strain per abstract)
Protocol: Control cells were incubated with an equal volume of a vehicle. Following incubation, the parasites were washed with PBS to remove excess drug and harvested in 200 μl of a lysis solution (50 mM HEPES, 150 mM NaCl, 1% Triton X-100 and 1% IGEPAL, 1 mM phenylmethyl sulfonyl fluoride). The lysates were centrifuged at 14,000 g for 20 min at 4°C, and supernatants were transferred to new tubes. Furthermore, the protein concentration was measured using the Pierce BCA protein assay kit. After preparation of lysates, 30 μl (0.8 mg/ml) aliquots of the supernatants were heated individually on a Thermomixer compact (Eppendorf) at different temperatures for 7 min and then cooled at room temperature for 3 min. CETSA samples were separated by SDS-PAGE, and immunoblotting was performed as described previously using a mouse polyclonal anti-LdGp63 catalytic domain antibody (1:500) ([Chakrabarti et al., 2021]).

MDCK cells = test: MTT cell viability assay on MDCK cells; type: cell-based
Protocol: as §1
All the compounds were dissolved in dimethyl sulfoxide (DMSO) (Sigma-Aldrich) for 1 mM stock solution and were screened against promastigotes at a concentration of 5 µM. […]
To evaluate the cytotoxic effects of 12 compounds on L. donovani promastigotes, LDH assay was performed. This assay involves the reduction of tetrazolium salts to formazan during LDH-mediated catalysis of lactate to pyruvate, which can be detected at 490 nM. […] The selectivity index (SI) for the compound was calculated as the ratio between cytotoxicity (CC50) and activity (IC50) against promastigotes ( Table 1 ).

T1 sequence (P23223 88-565): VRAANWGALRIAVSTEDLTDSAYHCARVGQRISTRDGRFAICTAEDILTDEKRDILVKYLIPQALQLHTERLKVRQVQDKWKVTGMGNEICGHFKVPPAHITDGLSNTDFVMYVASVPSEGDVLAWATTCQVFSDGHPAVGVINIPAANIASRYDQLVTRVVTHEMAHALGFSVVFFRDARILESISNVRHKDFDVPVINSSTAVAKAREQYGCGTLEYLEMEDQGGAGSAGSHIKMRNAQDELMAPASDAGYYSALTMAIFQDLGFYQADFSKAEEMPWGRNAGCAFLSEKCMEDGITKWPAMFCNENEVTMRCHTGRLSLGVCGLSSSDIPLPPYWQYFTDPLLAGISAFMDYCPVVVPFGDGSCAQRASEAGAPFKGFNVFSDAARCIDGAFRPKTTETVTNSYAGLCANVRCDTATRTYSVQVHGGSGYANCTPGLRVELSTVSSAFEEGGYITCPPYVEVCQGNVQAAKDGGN

Compound: CC(C)CCOC1O[C@H](CO)[C@@H](O)[C@H](O)[C@H]1O (stereo partly drawn) [Gly2]
- CC50 [1]: 2900 µM
- cytotoxicity in macrophage cells [2]: minimum level of cytotoxicity
- % DCFDA+ parasites [3]: ~ 50%
- mitochondrial uptake of JC-1 dye (ΔΨm) [4]: significantly decreased
- number of amastigotes per infected macrophage [5]: ~ 1 amastigotes/macrophages
- promastigote death (PI uptake) ([6]; 10% NHS, Gly2 at 5 µM where treated, control in 10% heat-inactivated FBS 0.06%): ~ 80%
- increment in PI uptake ([6]; Gly2 + 10% NHS vs 10% NHS alone): 24.65%
- thermostability of Gp63 in treated lysates (immunoblot) (LdGp63): stable at higher temperature
- cytotoxicity in MDCK cells (MDCK cells): minimum level of cytotoxicity
